Consider eight compounds from patent US20240417410A1, “TRICYCLIC COMPOUNDS FOR THE TREATMENT OF CANCER” (Hoffmann-La Roche Inc., priority 2023, published 2024).

Assay [1] relates to AGS cells (KRAS G12D). Briefly: Cell viability assay (Cell Counting Kit-8, 3-day). The conditions noted are these: Homo sapiens, 72 h, 72 hrs incubation. The format is cell-based, human. The essentials:
(§1)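 Cells seeded at 5,000/well (NCI-H358) or 2,000/well (AGS, SW620), treated next day at 0.5% final DMSO for 72 h. Viability read by CCK-8 (OD450 minus OD650) after 2 h; IC50 from 4-parameter sigmoidal fit.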
Background: Tetrazolium assays rely on reduction of a dye to a coloured formazan, in cell work by metabolically active cells.

Assay [2] relates to NCI-H358 cells (KRAS G12C). Briefly: Cell viability assay (Cell Counting Kit-8, 3-day). To be noted: Homo sapiens, NCI-H358, 72 h, NCI-H358, 72 hrs incubation. The format is cell-based, human. The essentials: as §1
For assay [3], the system named is SW620 cells (KRAS G12V). As to the kind of experiment: Cell viability assay (Cell Counting Kit-8, 3-day). The format is cell-based, human. To be noted: Homo sapiens, SW-620; SW620, 72 hrs incubation. A digest of the protocol: as §1
Assay [4] deals with KRAS G12C-BRAF complex (Homo sapiens (Human), UniProt P01116+P62937, G12C). Briefly: KRAS-BRAF with CYPA (500 nM) interaction assay (TR-FRET, Example 136). The format is biochemical. To be noted: KRAS G12C-BRAF disruption. On the procedure:
In this example, TR-FRET was also used to measure the compound or compound-CYPA dependent disruption of the KRAS G12C-BRAF complex. This protocol was also used to measure disruption of KRAS G12D or KRAS G12V binding to BRAF by a compound of the invention, respectively. In assay buffer containing 25 mM HEPES PH=7.4 (4-(2-hydroxyethyl)-1-piperazineethanesulfonic acid, Thermo, 15630080), 0.002% Tween20, 0.1% BSA, 100 mM NaCl, 5 mM MgCl2, 10 μM GMPPNP (Guanosine 5′-[β,γ-imido]triphosphate trisodium salt hydrate, Sigma, G0635), […] 384-well assay plate at final concentrations of 50 nM, 6.25 nM and 1 nM, respectively. Compound was present in plate wells as a 16-point 3-fold dilution series starting at a final concentration of 10 μM and incubated for 3 hours. A mixture of MAb Anti-6His-XL665 (Cisbio, 61HISXLB) and Mab anti-GST-TB cryptate (Cisbio, 61GSTTLB) was then added at a final concentration of 6.67 nM and 0.21 nM, respectively, and the plate was incubated for an additional 1.5 hours. TR-FRET signal was read on a PHERstar FSX microplate reader (Ex320 nm, Em 665/615 nm). Compounds that facilitate disruption of the KRAS-BRAF complex were identified as those eliciting a decrease in the TR-FRET ratio relative to DMSO control wells.
In general terms: TR-FRET usually uses a lanthanide donor and a delayed reading to cut background.

The test system of assay [5] is phosphorylation of ERK, KRAS G12C in NCI-H358 cells. As to the kind of experiment: pERK inhibition assay. The conditions noted are these: Homo sapiens, NCI-H358, 4 h. Format: cell-based. A digest of the protocol:
(§2)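 NCI-H358 (KRAS G12C), AGS (G12D) and SW620 (G12V) cells plated overnight, then treated with compound for 4 h in 0.5% DMSO. After fixing and methanol permeabilisation, phospho-ERK was detected by in-cell ELISA (HRP/TMB, OD450). IC50 from a 4-parameter sigmoidal fit.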

Assay [6] has as its system phosphorylation of ERK, KRAS G12D in AGS cells. As to the kind of experiment: pERK inhibition assay. Format: cell-based. To be noted: Homo sapiens, AGS, 4 h. The essentials:
as §2

Assay [7] concerns phosphorylation of ERK, KRAS G12V in SW620. As to the kind of experiment: pERK inhibition assay. The conditions noted are these: Homo sapiens, SW-620, 4 h, SW620 cells. Format: cell-based. A digest of the protocol: as §2

Where only a bound is given, the exact number is not on record here.

Chain of KRAS G12C-BRAF complex (P01116-2 other isoform, or with tags, fused parts or gaps G12C): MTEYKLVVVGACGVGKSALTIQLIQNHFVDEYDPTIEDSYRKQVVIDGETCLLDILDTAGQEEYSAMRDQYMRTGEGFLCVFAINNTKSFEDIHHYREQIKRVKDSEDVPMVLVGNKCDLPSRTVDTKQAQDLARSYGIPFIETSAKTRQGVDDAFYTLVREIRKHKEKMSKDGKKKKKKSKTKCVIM
Chain of KRAS G12C-BRAF complex (P62937 whole entry): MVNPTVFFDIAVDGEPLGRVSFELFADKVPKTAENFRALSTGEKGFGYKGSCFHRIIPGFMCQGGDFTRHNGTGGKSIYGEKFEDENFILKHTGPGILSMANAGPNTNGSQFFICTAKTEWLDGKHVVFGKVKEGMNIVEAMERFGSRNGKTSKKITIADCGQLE

`CO[C@@H](C)c1ncc(N2CCOCC2)cc1-c1c2c3cc(cc4c3n1CCO4)-c1csc(n1)C[C@H](NC(=O)[C@H]1C[C@@H]1C(F)F)C(=O)N1CCC[C@H](N1)C(=O)OCC(C)(C)C2` (atropisomer, axis not shown; (M)) [Example 9, (1S,2S)-2-(difluoromethyl)-N-[(7S,13S)-(20M)-20-[2-[(1S)-1-methoxyethyl]-5-morpholino-3-pyridyl]-17,17-dimethyl-8,14-dioxo-15,24-dioxa-4-thia-9,21,30,31-tetrazahexacyclo[23.3.1.1^2,5.1^9,13.0^19,27.0^21,26]hentriaconta-1 (28),2,5 (31), 19,25 (29),26-hexaen-7-yl]cyclopropanecarboxamide]: the IC50 (usually the concentration that inhibits the measured activity by half) in assay [1] was 7.6 nM; in assay [2], 2.8 nM; in assay [3], less than 0.6 nM; in assay [4], 21.1 nM; in assay [5], 2.3 nM; in assay [6], 1.8 nM. The IC50 in assay [7] was 0.8 nM.

Consider `CO[C@@H](C)c1ncc(N2CCOCC2)cc1-c1c2c3cc(cc4c3n1CCO4)-c1csc(n1)C[C@H](NC(=O)[C@H]1[C@@H]3COC[C@@H]31)C(=O)N1CCC[C@H](N1)C(=O)OCC(C)(C)C2` (atropisomer, axis not shown; (M)) [Example 10, (1S,5R,6r)-N-[(7S,13S)-(20M)-20-[2-[(1S)-1-methoxyethyl]-5-morpholino-3-pyridyl]-17,17-dimethyl-8,14-dioxo-15,24-dioxa-4-thia-9,21,30,31-tetrazahexacyclo[23.3.1.1^2,5.1^9,13.0^19,27.0^21,26]hentriaconta-1 (28),2,5 (31), 19,25 (29),26-hexaen-7-yl]-3-oxabicyclo[3.1.0]hexane-6-carboxamide], for which the IC50 in assay [1] is 4.6 nM; in assay [2] it was 2.2 nM; in assay [3] it was less than 0.6 nM; in assay [4], 5.9 nM; in assay [5] it was 3.3 nM; in assay [6], 1.4 nM. Besides, in assay [7], the IC50 turned out to be 1.2 nM.

`CO[C@@H](C)c1ncc(N2CCN(CC(F)(F)F)CC2)cc1-c1c2c3cc(cc4c3n1CCO4)-c1csc(n1)C[C@H](NC(=O)[C@H]1C[C@@H]1C(F)F)C(=O)N1CCC[C@H](N1)C(=O)OCC(C)(C)C2` (atropisomer, axis not shown; (M)) [Example 11, (1S,2S)-2-(difluoromethyl)-N-[(7S,13S)-(20M)-20-[2-[(1S)-1-methoxyethyl]-5-[4-(2,2,2-trifluoroethyl)piperazin-1-yl]-3-pyridyl]-17,17-dimethyl-8,14-dioxo-15,24-dioxa-4-thia-9,21,30,31-tetrazahexacyclo[23.3.1.1^2,5.1^9,13.0^19,27.0^21,26]hentriaconta-1 (28),2,5 (31),19,25 (29),26-hexaen-7-yl]cyclopropanecarboxamide]: the half-inhibitory concentration (IC50) worked out at 38.4 nM in assay [1]; 18.8 nM in assay [2]; 2.4 nM in assay [3]; 12.4 nM in assay [4]; 5.1 nM in assay [5]; 2.9 nM in assay [6]. In addition, it took 0.8 nM to reach half-maximal inhibition in assay [7] (IC50).

Consider `CO[C@@H](C)c1ncc(N2CCN(CC(F)(F)F)CC2)cc1-c1c2c3cc(cc4c3n1CCO4)-c1csc(n1)C[C@H](NC(=O)[C@H]1[C@@H]3COC[C@@H]31)C(=O)N1CCC[C@H](N1)C(=O)OCC(C)(C)C2` (atropisomer, axis not shown; (M)) [Example 12, (1S,5R,6r)-N-[(7S,13S)-(20M)-20-[2-[(1S)-1-methoxyethyl]-5-[4-(2,2,2-trifluoroethyl)piperazin-1-yl]-3-pyridyl]-17,17-dimethyl-8,14-dioxo-15,24-dioxa-4-thia-9,21,30,31-tetrazahexacyclo[23.3.1.1^2,5.1^9,13.0^19,27.0^21,26]hentriaconta-1 (28),2,5 (31),19,25 (29),26-hexaen-7-yl]-3-oxabicyclo[3.1.0]hexane-6-carboxamide], for which the IC50 was 25 nM in assay [1]; 12.5 nM in assay [2]; 2 nM in assay [3]; 12 nM in assay [4]; 3.8 nM in assay [5]; 2.2 nM in assay [6]. The compound also showed an IC50 in assay [7] of 1.2 nM.

Regarding `CO[C@@H](C)c1ncc(N2CCN(CC(F)(F)F)CC2)cc1-c1c2c3cc(cc4c3n1CCC4)-c1csc(n1)C[C@H](NC(=O)[C@H]1[C@@H]3COC[C@@H]31)C(=O)N1CCC[C@H](N1)C(=O)OCC(C)(C)C2` (atropisomer, axis not shown; (M)) [Example 13, (1S,5R,6r)-N-[(7S,13S)-(20M)-20-[2-[(1S)-1-methoxyethyl]-5-[4-(2,2,2-trifluoroethyl)piperazin-1-yl]-3-pyridyl]-17,17-dimethyl-8,14-dioxo-15-oxa-4-thia-9,21,30,31-tetrazahexacyclo[23.3.1.1^2,5.1^9,13.0^19,27.0^21,26]hentriaconta-1 (28),2,5 (31),19,25 (29),26-hexaen-7-yl]-3-oxabicyclo[3.1.0]hexane-6-carboxamide], the IC50 in assay [1] was found to be 23 nM; in assay [2], 6.4 nM; in assay [3], 0.7 nM; in assay [4], 1.5 nM; in assay [5] it was 3 nM; in assay [6], 10.8 nM. Further, the IC50 in assay [7] was determined as 1.5 nM.

On to `CO[C@@H](C)c1ncc(N2CCN(C)CC2)cc1-c1c2c3cc(cc4c3n1CCC4)-c1csc(n1)C[C@H](NC(=O)[C@H]1C[C@@H]1C(F)F)C(=O)N1CCC[C@H](N1)C(=O)OCC(C)(C)C2` (atropisomer, axis not shown; (M)) [Example 14, (1S,2S)-2-(difluoromethyl)-N-[(7S,13S)-(20M)-20-[2-[(1S)-1-methoxyethyl]-5-(4-methylpiperazin-1-yl)-3-pyridyl]-17,17-dimethyl-8,14-dioxo-15-oxa-4-thia-9,21,30,31-tetrazahexacyclo[23.3.1.1^2,5.1^9,13.0^19,27.0^21,26]hentriaconta-1 (28),2,5 (31),19,25 (29),26-hexaen-7-yl]cyclopropanecarboxamide], for which the IC50 amounted to 17.5 nM in assay [1]; 3.6 nM in assay [2]; 1 nM in assay [3]; 22.2 nM in assay [4]; 0.8 nM in assay [5]; 5.6 nM in assay [6]. For the same compound, it took 0.7 nM to reach half-maximal inhibition in assay [7] (IC50).

Consider `CO[C@@H](C)c1ncc(N2CCN(C)CC2)cc1-c1c2c3cc(cc4c3n1CCC4)-c1csc(n1)C[C@H](NC(=O)[C@H]1[C@@H]3COC[C@@H]31)C(=O)N1CCC[C@H](N1)C(=O)OCC(C)(C)C2` (atropisomer, axis not shown; (M)) [Example 15, (1S,5R,6r)-N-[(7S,13S)-(20M)-20-[2-[(1S)-1-methoxyethyl]-5-(4-methylpiperazin-1-yl)-3-pyridyl]-17,17-dimethyl-8,14-dioxo-15-oxa-4-thia-9,21,30,31-tetrazahexacyclo[23.3.1.1^2,5.1^9,13.0^19,27.0^21,26]hentriaconta-1 (28),2,5 (31), 19,25 (29),26-hexaen-7-yl]-3-oxabicyclo[3.1.0]hexane-6-carboxamide], for which the half-maximal inhibitory concentration (IC50) amounted to 15.9 nM in assay [1]; 6.6 nM in assay [2]; 1.2 nM in assay [3]; 11.9 nM in assay [4]; 0.7 nM in assay [5]; 5.2 nM in assay [6]. Also, in assay [7], 0.8 nM corresponded to half-maximal inhibition (IC50).

Consider `CO[C@@H](C)c1ncc(N2CCN(C)CC2)cc1-c1c2c3cc(cc4c3n1CCC4)-c1csc(n1)C[C@H](NC(=O)[C@@H]1C[C@H]1C1CC1)C(=O)N1CCC[C@H](N1)C(=O)OCC(C)(C)C2` (atropisomer, axis not shown; (M)) [Example 16, (1R,2S)-2-cyclopropyl-N-[(7S,13S)-(20M)-20-[2-[(1S)-1-methoxyethyl]-5-(4-methylpiperazin-1-yl)-3-pyridyl]-17,17-dimethyl-8,14-dioxo-15-oxa-4-thia-9,21,30,31-tetrazahexacyclo[23.3.1.1^2,5.1^9,13.0^19,27.0^21,26]hentriaconta-1 (28),2,5 (31),19,25 (29),26-hexaen-7-yl]cyclopropanecarboxamide], for which the IC50 in assay [1] amounted to 25.9 nM; in assay [2] it was 7.3 nM; in assay [3] it was 1.6 nM; in assay [4], 10.2 nM; in assay [5], 4.6 nM; in assay [6] it was 2.6 nM. This compound also gave an IC50 in assay [7] of 2.8 nM.
